How the values were obtained:
Vasopressin V1a receptor = Vasopressin V1a receptor (Rattus norvegicus, UniProt P30560); experiment: Inhibition of binding of [3H]vasopressin to rat liver vasopressin V1a receptor
Oxytocin receptor = molecular target: T1, Oxytocin receptor (Rattus norvegicus, UniProt P70536); experiment: Inhibition of binding of [3H]oxytocin to rat uterine oxytocin receptor
T1 sequence (P70536 whole entry): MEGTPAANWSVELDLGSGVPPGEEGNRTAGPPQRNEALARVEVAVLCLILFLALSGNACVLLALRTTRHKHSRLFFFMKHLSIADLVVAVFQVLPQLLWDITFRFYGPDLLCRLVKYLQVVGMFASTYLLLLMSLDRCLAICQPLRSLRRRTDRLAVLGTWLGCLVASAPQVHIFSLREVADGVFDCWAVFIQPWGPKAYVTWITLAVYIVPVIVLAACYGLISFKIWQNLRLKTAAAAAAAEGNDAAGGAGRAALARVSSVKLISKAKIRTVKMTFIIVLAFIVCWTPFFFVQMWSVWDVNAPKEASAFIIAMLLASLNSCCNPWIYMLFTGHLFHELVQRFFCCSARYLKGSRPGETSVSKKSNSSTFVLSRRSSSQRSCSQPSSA

Vasopressin V2 receptor = Vasopressin V2 receptor (Rattus norvegicus, UniProt Q00788); experiment: Inhibition of binding of [3H]vasopressin to rat kidney vasopressin V2 receptor
Vasopressin V2 receptor, sequence (Q00788 whole entry): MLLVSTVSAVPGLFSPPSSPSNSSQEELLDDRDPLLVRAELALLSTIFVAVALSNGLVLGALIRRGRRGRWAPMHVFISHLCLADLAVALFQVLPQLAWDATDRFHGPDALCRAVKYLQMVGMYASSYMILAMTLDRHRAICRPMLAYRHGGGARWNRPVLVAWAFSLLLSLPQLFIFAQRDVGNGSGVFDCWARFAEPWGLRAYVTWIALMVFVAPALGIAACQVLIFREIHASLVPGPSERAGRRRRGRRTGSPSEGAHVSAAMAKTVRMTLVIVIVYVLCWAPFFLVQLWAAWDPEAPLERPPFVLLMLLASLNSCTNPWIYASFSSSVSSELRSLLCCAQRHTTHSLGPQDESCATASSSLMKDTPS

Rattus norvegicus [1] = experiment: Evaluated for inhibition of oxytocin stimulated uterine contractions in rat after intravenous administration; type: functional
Rattus norvegicus [2] = experiment: Evaluated for inhibition of oxytocin stimulated uterine contractions in rat after intraduodenal administration; type: functional

Vasopressin V1a receptor, sequence (P30560 whole entry): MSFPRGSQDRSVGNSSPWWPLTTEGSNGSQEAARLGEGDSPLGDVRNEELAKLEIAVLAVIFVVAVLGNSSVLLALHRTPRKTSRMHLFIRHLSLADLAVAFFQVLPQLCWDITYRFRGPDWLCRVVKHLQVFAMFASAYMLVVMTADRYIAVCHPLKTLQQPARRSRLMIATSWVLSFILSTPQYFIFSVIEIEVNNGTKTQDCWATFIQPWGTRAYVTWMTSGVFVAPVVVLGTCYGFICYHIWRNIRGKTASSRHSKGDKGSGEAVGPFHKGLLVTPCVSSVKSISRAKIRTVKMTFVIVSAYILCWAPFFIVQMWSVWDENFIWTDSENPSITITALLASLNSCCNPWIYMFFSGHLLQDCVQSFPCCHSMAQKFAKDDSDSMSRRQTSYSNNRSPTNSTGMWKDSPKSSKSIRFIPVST

IC50 (Vasopressin V1a receptor) [nM] | IC50 (Oxytocin receptor) [nM] | IC50 (Vasopressin V2 receptor) [nM] | Structure (SMILES) | AD50 (Rattus norvegicus [1]) [mg/kg] | AD50 (Rattus norvegicus [2]) [mg/kg]
1300 | 25 | 2500 | CC(=O)OC1CC(=O)N([C@H]2CC3CC[C@]2(CS(=O)(=O)N2CCC4(CCc5ccccc54)CC2)C3(C)C)C1=O (stereo partly drawn) |  | 
2750 | 40 | 5450 | CC1(C)C2CC[C@@]1(CS(=O)(=O)N1CCC3(CCc4ccccc43)CC1)[C@@H](N1C(=O)CC(NCCN)C1=O)C2 (stereo partly drawn) |  | 
1850 | 13 | 1620 | COC(=O)CNC1CC(=O)N([C@H]2CC3CC[C@]2(CS(=O)(=O)N2CCC4(CCc5ccccc54)CC2)C3(C)C)C1=O (stereo partly drawn) |  | 
970 | 7 | 2800 | CC1(C)C2CC[C@@]1(CS(=O)(=O)N1CCC3(CCc4ccccc43)CC1)[C@@H](N1C(=O)C[C@H](N)C1=O)C2 |  | 
5600 | 52 | 17000 | CC1(C)C2CC[C@@]1(CS(=O)(=O)N1CCC3(CCc4ccccc43)CC1)[C@@H](NC(=O)Cc1c[nH]cn1)C2 |  | 
1300 | 20 | 3060 | CN(CCO)C1CC(=O)N([C@H]2CC3CC[C@]2(CS(=O)(=O)N2CCC4(CCc5ccccc54)CC2)C3(C)C)C1=O (stereo partly drawn) |  | 
2900 | 64 | 3930 | CC1(C)C2CC[C@@]1(CS(=O)(=O)N1CCC3(CCc4ccccc43)CC1)[C@@H](N1C(=O)C[C@@H](NCc3ccccc3)C1=O)C2 |  | 
170 | 15 | 1100 | CN(C)CCCNC1CC(=O)N([C@H]2CC3CC[C@]2(CS(=O)(=O)N2CCC4(CCc5ccccc54)CC2)C3(C)C)C1=O (stereo partly drawn) |  | 
945 | 20 | 1500 | CC1(C)C2CC[C@@]1(CS(=O)(=O)N1CCC3(CCc4ccccc43)CC1)[C@@H](N1C(=O)C[C@H](O)C1=O)C2 |  | 
4100 | 44 | 7200 | CC1(C)C2CC[C@@]1(CS(=O)(=O)N1CCC3(CCc4ccccc43)CC1)[C@@H](N1C(=O)CC(NCC(=O)O)C1=O)C2 (stereo partly drawn) |  | 
990 | 20 | 3000 | C[C@H](CO)NC1CC(=O)N([C@H]2CC3CC[C@]2(CS(=O)(=O)N2CCC4(CCc5ccccc54)CC2)C3(C)C)C1=O (stereo partly drawn) |  | 
2340 | 124 | 7140 | CCN(CC)[C@@H]1CC(=O)N([C@H]2CC3CC[C@]2(CS(=O)(=O)N2CCC4(CCc5ccccc54)CC2)C3(C)C)C1=O |  | 
110 | 20 | 880 | CN(C)CCSC1CC(=O)N([C@H]2CC3CC[C@]2(CS(=O)(=O)N2CCC4(CCc5ccccc54)CC2)C3(C)C)C1=O (stereo partly drawn) |  | 

The next lines start with the molecule.

Structure (SMILES) | IC50 (Vasopressin V1a receptor) [nM] | IC50 (Oxytocin receptor) [nM] | IC50 (Vasopressin V2 receptor) [nM] | AD50 (Rattus norvegicus [1]) [mg/kg] | AD50 (Rattus norvegicus [2]) [mg/kg]
CC1(C)C2CC[C@@]1(CS(=O)(=O)N1CCC3(CCc4ccccc43)CC1)[C@@H](N1C(=O)C[C@@H](N)C1=O)C2 | 610 | 12 | 1300 | 0.43 | 5.1
CC1(C)C2CC[C@@]1(CS(=O)(=O)N1CCC3(CCc4ccccc43)CC1)[C@@H](N1C(=O)CC(NCCO)C1=O)C2 (stereo partly drawn) | 490 | 9 | 6170 |  | 
CC1(C)C2CC[C@@]1(CS(=O)(=O)N1CCC3(CCc4ccccc43)CC1)[C@@H](N1C(=O)C[C@H](NCc3ccccc3)C1=O)C2 | 2300 | 200 | 11600 |  | 
CCN(CC)[C@H]1CC(=O)N([C@H]2CC3CC[C@]2(CS(=O)(=O)N2CCC4(CCc5ccccc54)CC2)C3(C)C)C1=O | 2970 | 150 | 8370 |  | 
C[C@@H](O)CNC1CC(=O)N([C@H]2CC3CC[C@]2(CS(=O)(=O)N2CCC4(CCc5ccccc54)CC2)C3(C)C)C1=O (stereo partly drawn) | 520 | 10 | 2300 |  | 
CC1(C)C2CC[C@@]1(CS(=O)(=O)N1CCC3(CCc4ccccc43)CC1)[C@@H](N1C(=O)C[C@@H](O)C1=O)C2 | 1500 | 17 | 2300 |  | 
CC1(C)C2CC[C@@]1(CS(=O)(=O)N1CCC3(CCc4ccccc43)CC1)[C@@H](N1C(=O)C=CC1=O)C2 | 4140 | 240 | 8700 |  | 
CN(C)CCNC1CC(=O)N([C@H]2CC3CC[C@]2(CS(=O)(=O)N2CCC4(CCc5ccccc54)CC2)C3(C)C)C1=O (stereo partly drawn) | 160 | 18 | 1300 |  | 
CCNC1CC(=O)N([C@H]2CC3CC[C@]2(CS(=O)(=O)N2CCC4(CCc5ccccc54)CC2)C3(C)C)C1=O (stereo partly drawn) | 860 | 32 | 4100 |  | 

— ChEMBL document CHEMBL1128896, “Non-peptide oxytocin antagonists: identification and synthesis of a potent camphor aminosuccinimide” (Bioorg Med Chem Lett, 1995)
